ChEMBL document CHEMBL4602605, “Fluoroquinolones structural and medicinal developments (2013-2018): Where are we now?” (Bioorg Med Chem, 2019)
Values after ≈ are worked out from the molar mass of the structure shown.

Columns and labels:
Assay type in all cases: functional
[1] = system: Enterococcus faecium; assay: Antimicrobial activity against Enterococcus faecium ATCC 700221 incubated for 18 to 24 hrs by two-fold serial dilution method
[2] = system: Staphylococcus epidermidis; assay: Antimicrobial activity against methicillin-susceptible Staphylococcus epidermidis ATCC 12228 incubated for 18 to 24 hrs by two-fold serial dilution method
[3] = system: Staphylococcus aureus; assay: Antimicrobial activity against methicillin-resistant Staphylococcus aureus ATCC 33591 incubated for 18 to 24 hrs by two-fold serial dilution method
[4] = system: Mycobacterium tuberculosis; assay: Antimicrobial activity against Mycobacterium tuberculosis H37Rv ATCC 27294 incubated for 7 days by microplate Alamar blue assay; settings: H37Rv ATCC 27294, 168 h
[5] = system: Staphylococcus aureus; assay: Antimicrobial activity against methicillin-susceptible Staphylococcus aureus ATCC 29213 incubated for 18 to 24 hrs by two-fold serial dilution method
[6] = system: Escherichia coli; assay: Antimicrobial activity against Escherichia coli ATCC 25922 incubated for 24 hrs; settings: ATCC 25922, 24 h
[7] = system: Streptococcus pneumoniae; assay: Antibacterial activity against Streptococcus pneumoniae ATCC 49619 incubated for 24 hrs; settings: ATCC 49619, 24 h
[8] = system: Pseudomonas aeruginosa; assay: Antimicrobial activity against Pseudomonas aeruginosa ATCC 27853 incubated for 24 hrs; settings: ATCC 27853, 24 h
[9] = system: Staphylococcus aureus; assay: Antimicrobial activity against Staphylococcus aureus ATCC 29213 incubated for 24 hrs; settings: ATCC 29213, 24 h
[10] = system: Pseudomonas aeruginosa; assay: Antimicrobial activity against Pseudomonas aeruginosa ATCC 19429 incubated for 18 hrs by CLSI-based microbroth dilution method; settings: ATCC 19429, 18 h
[11] = system: Staphylococcus aureus; assay: Antimicrobial activity against Staphylococcus aureus ATCC 25923 incubated for 18 hrs by CLSI-based microbroth dilution method; settings: ATCC 25923, 18 h
[12] = system: Escherichia coli; assay: Antibacterial activity against Escherichia coli incubated for 18 hrs by CLSI-based broth microdilution method

SMILES: COc1c(N2CCN(C/C(C)=N/NC(=O)c3ccc(F)cc3)CC2)c(F)cc2c(=O)c(C(=O)O)cn(C3CC3)c12
- MIC [1]: > 64 µg/mL
- MIC [2]: 0.125 µg/mL (≈ 0.226 µM)
- MIC [3]: 0.125 µg/mL (≈ 0.226 µM)
- MIC [4]: 0.266 µM (≈ 0.147 µg/mL)
- MIC [5]: 0.125 µg/mL (≈ 0.226 µM)

SMILES: CCn1cc(C(=O)O)c(=O)c2cc(F)c(N3CCN(C/C(=N/Nc4ccccc4)c4ccc(C)cc4)CC3)cc21
- MIC [6]: 25 µg/mL (≈ 46.2 µM)
- MIC [7]: 100 µg/mL (≈ 185 µM)
- MIC [8]: > 100 µg/mL
- MIC [9]: 50 µg/mL (≈ 92.3 µM)

SMILES: CCn1cc(C(=O)O)c(=O)c2cc(F)c(N3CCN(C/C(=N/O)c4ccc(C)cc4)CC3)cc21
- MIC [6]: 50 µg/mL (≈ 107 µM)
- MIC [7]: 100 µg/mL (≈ 214 µM)
- MIC [8]: 100 µg/mL (≈ 214 µM)
- MIC [9]: 50 µg/mL (≈ 107 µM)

SMILES: COc1ccc(/C(CN2CCN(c3cc4c(cc3F)c(=O)c(C(=O)O)cn4C3CC3)CC2)=N\O)cc1
- MIC [6]: 12.5 µg/mL (≈ 25.3 µM)
- MIC [7]: 50 µg/mL (≈ 101 µM)
- MIC [8]: 100 µg/mL (≈ 202 µM)
- MIC [9]: 6.25 µg/mL (≈ 12.6 µM)

SMILES: CCn1cc(C(=O)O)c(=O)c2cc(F)c(N3CCN(C/C(=N/N)c4ccc(C)cc4)CC3)cc21
- MIC [6]: 25 µg/mL (≈ 53.7 µM)
- MIC [7]: 25 µg/mL (≈ 53.7 µM)
- MIC [8]: 100 µg/mL (≈ 215 µM)
- MIC [9]: 12.5 µg/mL (≈ 26.9 µM)

SMILES: CCn1cc(C(=O)O)c(=O)c2cc(F)c(N3CCN(C/C(=N/NC(N)=O)c4ccc([N+](=O)[O-])cc4)CC3)cc21
- MIC [6]: 6.25 µg/mL (≈ 11.6 µM)
- MIC [7]: 12.5 µg/mL (≈ 23.2 µM)
- MIC [8]: 50 µg/mL (≈ 92.7 µM)
- MIC [9]: 6.25 µg/mL (≈ 11.6 µM)

SMILES: CCCCn1cc(C(=O)O)c(=O)c2cc(F)c(N3CCNCC3)cc21.Cl
- MIC [10]: 16 µg/mL
- MIC [11]: 16 µg/mL
- MIC [12]: 2 µg/mL

SMILES: CCn1cc(C(=O)O)c(=O)c2cc(F)c(N3CCN(C/C(=N\Nc4ccccc4)c4ccc([N+](=O)[O-])cc4)CC3)cc21
- MIC [6]: 50 µg/mL (≈ 87.3 µM)
- MIC [7]: 100 µg/mL (≈ 175 µM)
- MIC [8]: > 100 µg/mL
- MIC [9]: 50 µg/mL (≈ 87.3 µM)

SMILES: COc1c(N2CCN(CCn3cncn3)CC2)c(F)cc2c(=O)c(C(=O)O)cn(C3CC3)c12
- MIC [1]: > 128 µg/mL
- MIC [2]: 4 µg/mL (≈ 8.76 µM)
- MIC [3]: 4 µg/mL (≈ 8.76 µM)
- MIC [4]: 4.1 µM (≈ 1.87 µg/mL)
- MIC [5]: 4 µg/mL (≈ 8.76 µM)

SMILES: COc1ccc(Cn2cc(C(=O)O)c(=O)c3cc(F)c(N4CCNCC4)cc32)cc1.Cl
- MIC [10]: > 128 µg/mL
- MIC [11]: 64 µg/mL
- MIC [12]: 128 µg/mL

SMILES: CCn1cc(C(=O)O)c(=O)c2cc(F)c(N3CCN(C/C(=N/OC)c4ccc(OC)cc4)CC3)cc21
- MIC [6]: 50 µg/mL (≈ 101 µM)
- MIC [7]: 100 µg/mL (≈ 201 µM)
- MIC [8]: 100 µg/mL (≈ 201 µM)
- MIC [9]: 50 µg/mL (≈ 101 µM)

SMILES: COc1c(N2CCN(C/C(C)=N/NC(=O)c3ccc(O)cc3)CC2)c(F)cc2c(=O)c(C(=O)O)cn(C3CC3)c12
- MIC [1]: 64 µg/mL (≈ 116 µM)
- MIC [2]: 0.06 µg/mL (≈ 0.109 µM)
- MIC [3]: 0.06 µg/mL (≈ 0.109 µM)
- MIC [4]: 0.21 µM (≈ 0.116 µg/mL)
- MIC [5]: 0.125 µg/mL (≈ 0.227 µM)

SMILES: CCN(CC)c1cc2c(cc1F)c(=O)c(C(=O)O)cn2C1CC1
- MIC [10]: 32 µg/mL (≈ 101 µM)
- MIC [11]: 0.5 µg/mL (≈ 1.57 µM)
- MIC [12]: 1 µg/mL (≈ 3.14 µM)

SMILES: COc1c(N2CCN(CCn3c([N+](=O)[O-])cnc3C)CC2)c(F)cc2c(=O)c(C(=O)O)cn(C3CC3)c12
- MIC [1]: > 128 µg/mL
- MIC [2]: 1 µg/mL (≈ 1.94 µM)
- MIC [3]: 1 µg/mL (≈ 1.94 µM)
- MIC [4]: 1.72 µM (≈ 0.885 µg/mL)
- MIC [5]: 1 µg/mL (≈ 1.94 µM)

SMILES: CCn1cc(C(=O)O)c(=O)c2cc(F)c(N3CCN(C/C(=N/OC)c4ccc([N+](=O)[O-])cc4)CC3)cc21
- MIC [6]: 25 µg/mL (≈ 48.9 µM)
- MIC [7]: 100 µg/mL (≈ 195 µM)
- MIC [8]: 100 µg/mL (≈ 195 µM)
- MIC [9]: 25 µg/mL (≈ 48.9 µM)

SMILES: COc1c(N2CCN(CCCn3cc([N+](=O)[O-])nc3C)CC2)c(F)cc2c(=O)c(C(=O)O)cn(C3CC3)c12
- MIC [1]: > 64 µg/mL
- MIC [2]: 32 µg/mL (≈ 60.5 µM)
- MIC [3]: 32 µg/mL (≈ 60.5 µM)
- MIC [4]: 60.3 µM (≈ 31.9 µg/mL)
- MIC [5]: 32 µg/mL (≈ 60.5 µM)

SMILES: COc1c(N2CCN(C/C(C)=N/NC(=O)c3ccc([N+](=O)[O-])cc3)CC2)c(F)cc2c(=O)c(C(=O)O)cn(C3CC3)c12
- MIC [1]: 128 µg/mL (≈ 220 µM)
- MIC [2]: 0.125 µg/mL (≈ 0.215 µM)
- MIC [3]: 0.25 µg/mL (≈ 0.431 µM)
- MIC [4]: 0.294 µM (≈ 0.171 µg/mL)
- MIC [5]: 0.25 µg/mL (≈ 0.431 µM)

SMILES: COc1ccc(/C(CN2CCN(c3cc4c(cc3F)c(=O)c(C(=O)O)cn4C3CC3)CC2)=N/NC(N)=O)cc1
- MIC [6]: 12.5 µg/mL (≈ 23.3 µM)
- MIC [7]: 12.5 µg/mL (≈ 23.3 µM)
- MIC [8]: 50 µg/mL (≈ 93.2 µM)
- MIC [9]: 6.25 µg/mL (≈ 11.6 µM)

SMILES: COc1ccc(/C(CN2CCN(c3cc4c(cc3F)c(=O)c(C(=O)O)cn4C3CC3)CC2)=N\N)cc1
- MIC [6]: 12.5 µg/mL (≈ 25.3 µM)
- MIC [7]: 12.5 µg/mL (≈ 25.3 µM)
- MIC [8]: 100 µg/mL (≈ 203 µM)
- MIC [9]: 6.25 µg/mL (≈ 12.7 µM)

SMILES: CCn1cc(C(=O)O)c(=O)c2cc(F)c(N3CCCCCC3)cc21
- MIC [10]: > 128 µg/mL
- MIC [11]: 0.5 µg/mL (≈ 1.5 µM)
- MIC [12]: 16 µg/mL (≈ 48.1 µM)

SMILES: O=C(O)c1cn(C2CC2)c2cc(N3CCCCCC3)c(F)cc2c1=O
- MIC [10]: > 128 µg/mL
- MIC [11]: 0.25 µg/mL (≈ 0.726 µM)
- MIC [12]: 2 µg/mL (≈ 5.81 µM)

SMILES: COc1c(N2CCN(CCn3ccnn3)CC2)c(F)cc2c(=O)c(C(=O)O)cn(C3CC3)c12
- MIC [1]: > 128 µg/mL
- MIC [2]: 4 µg/mL (≈ 8.76 µM)
- MIC [3]: 4 µg/mL (≈ 8.76 µM)
- MIC [4]: 14.2 µM (≈ 6.48 µg/mL)
- MIC [5]: 4 µg/mL (≈ 8.76 µM)

SMILES: Cl.O=C(O)c1cn(CCO)c2cc(N3CCNCC3)c(F)cc2c1=O
- MIC [10]: 64 µg/mL
- MIC [11]: 64 µg/mL
- MIC [12]: 4 µg/mL

SMILES: Cl.Cn1cc(C(=O)O)c(=O)c2cc(F)c(N3CCNCC3)cc21
- MIC [10]: 2 µg/mL
- MIC [11]: 8 µg/mL
- MIC [12]: 0.25 µg/mL

SMILES: CCn1cc(C(=O)O)c(=O)c2cc(F)c(N3CCN(C/C(=N/NC(N)=O)c4ccccc4)CC3)cc21
- MIC [6]: 25 µg/mL (≈ 50.6 µM)
- MIC [7]: 100 µg/mL (≈ 202 µM)
- MIC [8]: 100 µg/mL (≈ 202 µM)
- MIC [9]: 12.5 µg/mL (≈ 25.3 µM)

SMILES: CCn1cc(C(=O)O)c(=O)c2cc(F)c(N3CCN(C/C(=N\O)c4ccccc4)CC3)cc21
- MIC [6]: 50 µg/mL (≈ 111 µM)
- MIC [7]: 100 µg/mL (≈ 221 µM)
- MIC [8]: 100 µg/mL (≈ 221 µM)
- MIC [9]: 50 µg/mL (≈ 111 µM)
